According to PMC10989010, “A panel of janus kinase inhibitors identified with anti-inflammatory effects protect mice from lethal influenza virus infection” (Antimicrobial Agents and Chemotherapy, 2024):
Structures can show the parent of a compound that is named as a salt.

Columns and labels:
IL-8 = experiment: U937 cell-based anti-inflammatory assay for influenza virus infection, IL-8 production (AlphaLISA); design: species or system human; settings: Homo sapiens, U-937, 72 h, read-out: IC50 IL-8
Procedure: U937 cells were seeded in a 96-well culture plate at a density of 1.5 × 10^5 cells per well and incubated for 24 hours prior to virus infection. Subsequently, the cells in each well were infected with the PR8 virus at a multiplicity of infection of 0.05 and treated with serially diluted drugs or left untreated as a control. The drugs were serially diluted threefold, starting from an initial concentration of 200 µM down to 0.01 µM. […] Following this incubation, the supernatants were collected and subjected to AlphaLISA analysis to determine IL-8, IP-10, and MCP1 protein levels.
The AlphaLISA detection kits employed in this study were IL-8 (PerkinElmer AL224), IP-10 (PerkinElmer AL259), and MCP1 (PerkinElmer, AL244). U937 cell culture supernatants were measured for IL-8, IP-10, and MCP-1 protein levels using AlphaLISA assay as per the manufacturer’s recommendations. The ELISA and AlphaLISA plates were read using the Varioskan LUX multimode microplate reader (Thermo Scientiﬁc, Waltham, MA, USA).

MCP1 = experiment: cells; type: cell-based, human; settings: Homo sapiens, U-937, 72 h, read-out: IC50 MCP1
lung tissues = experiment: Lung tissues histopathology (HE staining) of infected mice; type: in vivo; settings: 300 TCID50; 20 mg/kg/d; day 7 p.i.
Procedure: The H&E staining experiments were performed according to the previous report ([46]). Briefly, all the mouse lung tissues were fixed in 4% paraformaldehyde overnight, embedded in paraffin, and cut into 4 µm sections. The sections were stained with hematoxylin solution, treated with hematoxylin differentiation solution and hematoxylin Scott’s tap water bluing, and rinsed with tap water. The sections were dehydrated in 85% ethanol for 5 minutes, followed by 5 minutes in 95% ethanol, and stained with eosin dye for 5 minutes. After dehydration, all the sections were sealed with neutral gum. Each section was examined under the microscope. The slides were randomly read and reviewed for tissue damage, necrosis, and inflammatory cell infiltration.

PR8 virus = experiment: Neutralization assay of mouse sera; type: in vivo, BALB/c mice; settings: for neutralizing antibody titer: 50 TCID50 PR8, 20 mg/kg
Procedure: The neutralization assay was performed to determine the neutralizing titers of sera obtained from mice infected with influenza virus. The procedure involved diluting the sera and subsequently heat-inactivating it at 56℃ for 30 minutes, followed by its combination with 100 TCID50 PR8 virus and incubation at 37℃ for 1 hour. The mixture was added to pre-seeded MDCK cells and incubated at 37℃ for 1 hour. Subsequently, the medium was replaced with fresh DMEM and further cultured at 37℃ for 24 hours. Virus production in the supernatant was quantified by assessing virus neuraminidase activity on a black opaque 96-well plate (PerkinElmer, 6005270) using a substrate of 20 µM 2'-(4-methylumbelliferyl)-α-D-N-acetylneuraminic acid (MUNANA, Sigma, M8639) dissolved in MES solution [33 mmol/L 2-(N-morpholino) ethanesulfonic acid and 4 mmol/L CaCl2, pH = 6.5]. The reaction mixture was then incubated at 37℃ for an additional period of 2 hours. The reaction was terminated by the addition of a stop solution (0.14 mol/L NaOH in 83% ethanol). Fluorescence intensity was measured using multimode plate readers (Varioskan Lux, Thermoscientific, USA) with an excitation wavelength of 355 nm and an emission wavelength of 485 nm. The relative virus production was determined based on the fluorescence intensity, which correlated to the cleavage of MUNANA by viral neuraminidase. The serum neutralization titer, representing the dilution fold of serum required to achieve 50% virus neutralization, was determined using Graphpad software ([47]).

With `CNS(=O)(=O)C[C@H]1CC[C@H](N(C)c2ncnc3[nH]ccc23)CC1` [Oclacitinib maleate] the IC50 (IL-8) was 50 nM, the IC50 (MCP1) was 190 nM and the “lung histopathology (HE staining)” value (lung tissues) was “remained primarily intact, with fewer inflammatory cells present”. For the same compound, the “change in neutralization antibody titers compared to untreated mice” value (PR8 virus; 14 dpi) was “slight decrease”, the “change in neutralization antibody titers compared to untreated mice” value (PR8 virus; 21 dpi) was “no difference” and the neutralizing antibody titer (PR8 virus; 7 dpi) was 177. The neutralizing antibody titer (PR8 virus; 14 dpi) was 690 and the neutralizing antibody titer (PR8 virus; 21 dpi) was 1,087.
